Reference: patent publication US10246456B2, “IRAK4 inhibiting agents” (BIOGEN MA INC., priority 2014, dated 2019)

biological target: IRAK4 (Homo sapiens (Human), UniProt Q9NWZ3); experiment: IRAK-4 AlphaScreen biochemical kinase assay; settings: 1 nM IRAK4, 1 mM ATP, 3.5 h at RT
Procedure, shortened: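 AlphaScreen read-out: streptavidin beads bind the biotinylated peptide and protein A beads bind the anti-phosphothreonine antibody, so energy transfer reports phosphorylation of the peptide. The kinase is human IRAK-4.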

Sequence of IRAK4 (Q9NWZ3 whole entry, species assumed): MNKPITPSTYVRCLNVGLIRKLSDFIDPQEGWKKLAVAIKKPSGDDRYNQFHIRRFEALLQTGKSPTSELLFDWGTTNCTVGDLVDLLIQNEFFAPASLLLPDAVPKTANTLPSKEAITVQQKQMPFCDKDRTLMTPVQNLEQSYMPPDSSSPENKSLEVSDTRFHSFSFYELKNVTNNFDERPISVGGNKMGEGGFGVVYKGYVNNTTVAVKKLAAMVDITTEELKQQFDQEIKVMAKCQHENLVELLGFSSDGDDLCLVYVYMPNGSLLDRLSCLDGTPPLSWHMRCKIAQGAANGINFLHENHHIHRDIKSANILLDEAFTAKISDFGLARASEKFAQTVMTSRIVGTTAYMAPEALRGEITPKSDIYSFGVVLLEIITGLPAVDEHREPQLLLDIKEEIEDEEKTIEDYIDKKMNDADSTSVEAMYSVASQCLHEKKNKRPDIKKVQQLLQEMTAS

IC50 [nM] | Structure (SMILES)
100 to 1000 | Cc1cccc(-n2ncc3ccc(-c4cccc(C(C)N(C)C)n4)cc32)n1 (stereo not drawn) [Example 232, N,N-dimethyl-1-(6-(1-(6-methylpyridin-2-yl)-1H-indazol-6-yl)pyridin-2-yl)ethanamine]
1000 to 10000 | CC(=O)c1cccc(-c2cc(N(C)C)c3cnn(-c4cccc(C)n4)c3c2)n1 [Example 233, 1-(6-(4-(dimethylamino)-1-(6-methylpyridin-2-yl)-1H-indazol-6-yl)pyridin-2-yl)ethanone]
100 to 1000 | C/C(=N\O)c1cccc(-c2cc(N(C)C)c3cnn(-c4cccc(C)n4)c3c2)n1 [Example 234, (E)-1-(6-(4-(dimethylamino)-1-(6-methylpyridin-2-yl)-1H-indazol-6-yl)pyridin-2-yl)ethanone oxime]
1000 to 10000 | CCc1cccc(-n2ncc3ccc(-c4cccc(/C(C)=N/O)n4)cc32)n1 [Example 235, (E)-1-(6-(1-(6-ethylpyridin-2-yl)-1H-indazol-6-yl)pyridin-2-yl)ethanone oxime]
> 10000 | CC(=O)c1cccc(-c2ccc3cnn(-c4cccc(C#N)n4)c3c2)n1 [Example 236, 6-(6-(6-acet6ylpyridin-2-yl)-1H-indazol-1-yl)picolinonitrile]
> 10000 | COC(=O)c1cccc(-n2ncc3ccc(-c4cccc(/C(C)=N/O)n4)cc32)n1 [Example 237, (E)-methyl 6-(6-(6-(1-(hydroxyimino)ethyl)pyridin-2-yl)-1H-indazol-1-yl)picolinate]
> 10000 | CC(=O)c1cccc(-c2ccc3cnn(-c4nc(C)cs4)c3c2)n1 [Example 239]
< 100 | CC(N)c1cccc(-c2cc(F)c3cnn(-c4cccc(C(F)(F)F)n4)c3c2)n1 (stereo not drawn) [Example 240, 1-(6-(4-fluoro-1-(6-(trifluoromethyl)pyridin-2-yl)-1H-indazol-6-yl)pyridin-2-yl)ethanamine]
< 100 | Cc1cccc(-n2ncc3ccc(-c4ccc(F)c(C(C)N)n4)cc32)n1 (stereo not drawn) [Example 242, 1-(3-fluoro-6-(1-(6-methylpyridin-2-yl)-1H-indazol-6-yl)pyridin-2-yl)ethanamine]
1000 to 10000 | COC(=O)c1nc(-c2ccc3cnn(-c4cccc(C)n4)c3c2)ccc1N [Example 243, methyl 3-amino-6-(1-(6-methylpyridin-2-yl)-1H-indazol-6-yl)picolinate]
100 to 1000 | Cc1cccc(-n2ncc3ccc(-c4cccc(C(O)C(F)(F)F)n4)cc32)n1 (stereo not drawn) [Example 244, 2,2,2-trifluoro-1-(6-(1-(6-methylpyridin-2-yl)-1H-indazol-6-yl)pyridin-2-yl)ethanol]
< 100 | CCOc1cc(-c2cccc(C(C)N)n2)cc2c1cnn2-c1cccc(C)n1 (stereo not drawn) [Example 245, 1-(6-(4-ethoxy-1-(6-methylpyridin-2-yl)-1H-indazol-6-yl)pyridin-2-yl)ethanamine]
< 100 | COc1cc(-c2cccc(C(C)N)n2)cc2c1cnn2-c1cccc(C)n1 (stereo not drawn) [Example 246, 1-(6-(4-methoxy-1-(6-methylpyridin-2-yl)-1H-indazol-6-yl)pyridin-2-yl)ethanamine]

More lines, now with the values behind:

Structure (SMILES) | IC50 [nM]
N#Cc1cccc(-c2ccc3cnn(-c4cccc(C(F)(F)F)n4)c3c2)n1 [Example 211, 6-(1-(6-(trifluoromethyl)pyridin-2-yl)-1H-indazol-6-yl)picolinonitrile] | 1000 to 10000
Nc1cc(-c2ccc3cnn(-c4cccc(C(F)(F)F)n4)c3c2)cc(C(=O)O)n1 [Example 213, 6-amino-4-(1-(6-(trifluoromethyl)pyridin-2-yl)-1H-indazol-6-yl)picolinic acid] | 1000 to 10000
Cc1cccc(-n2ncc3c(C#N)cc(-c4cccc(C(C)N)n4)cc32)n1 (stereo not drawn) [Example 214, 6-(6-(1-aminoethyl)pyridin-2-yl)-1-(6-methylpyridin-2-yl)-1H-indazole-4-carbonitrile] | < 100
Cc1cccc(-n2cc3c(CN)cc(-c4cccc(C(C)N)n4)cc3n2)n1 (stereo not drawn) [Example 215, 1-(6-(4-(aminomethyl)-2-(6-methylpyridin-2-yl)-2H-indazol-6-yl)pyridin-2-yl)ethanamine] | 1000 to 10000
CC(c1cccc(-c2ccc3cnn(-c4cccc(C(F)(F)F)n4)c3c2)n1)N(C)C (stereo not drawn) [Example 216, N,N-dimethyl-1-(6-(1-(6-(trifluoromethyl)pyridin-2-yl)-1H-indazol-6-yl)pyridin-2-yl)ethanamine] | < 100
CC(=O)NCc1cc(-c2cccc(C(C)N)n2)cc2nn(-c3cccc(C)n3)cc12 (stereo not drawn) [Example 217, N-((6-(6-(1-aminoethyl)pyridin-2-yl)-2-(6-methylpyridin-2-yl)-2H-indazol-4-yl)methyl)acetamide] | 1000 to 10000
CC(=O)c1cccc(-c2cc(Cl)c3cnn(-c4cccc(C)n4)c3c2)n1 [Example 218, 1-(6-(4-chloro-1-(6-methylpyridin-2-yl)-1H-indazol-6-yl)pyridin-2-yl)ethanone] | 1000 to 10000
C/C(=N/O)c1cccc(-c2cc(Cl)c3cnn(-c4cccc(C)n4)c3c2)n1 [Example 219, (Z)-1-(6-(4-chloro-1-(6-methylpyridin-2-yl)-1H-indazol-6-yl)pyridin-2-yl)ethanone oxime] | 1000 to 10000
Cc1cccc(-n2ncc3ccc(-c4cccc(C(C)N(C)C)n4)cc32)n1 (stereo not drawn) [Example 220, N,N-dimethyl-1-(6-(1-(6-methylpyridin-2-yl)-1H-indazol-6-yl)pyridin-2-yl)ethanamine] | 100 to 1000
C/C(=N/O)c1cccc(-c2ccc3cnc(-c4cccc(C(F)(F)F)n4)n3c2)n1 [Example 224, (Z)-1-(6-(3-(6-(trifluoromethyl)pyridin-2-yl)imidazo[1,5-a]pyridin-6-yl)pyridin-2-yl)ethanone oxime] | > 10000
CC(=O)c1cccc(-c2cc(N(C)C(=O)OC(C)(C)C)c3cnn(-c4cccc(C)n4)c3c2)n1 [Example 225, tert-butyl (6-(6-acetylpyridin-2-yl)-1-(6-methylpyridin-2-yl)-1H-indazol-4-yl)(methyl)carbamate] | 1000 to 10000
C/C(=N/O)c1cccc(-c2cc(N(C)C(=O)OC(C)(C)C)c3cnn(-c4cccc(C)n4)c3c2)n1 [Example 226, (Z)-tert-butyl (6-(6-(1-(hydroxyimino)ethyl)pyridin-2-yl)-1-(6-methylpyridin-2-yl)-1H-indazol-4-yl)(methyl)carbamate] | > 10000
CNc1cc(-c2cccc(/C(C)=N\O)n2)cc2c1cnn2-c1cccc(C)n1 [Example 227, (Z)-1-(6-(4-(methylamino)-1-(6-methylpyridin-2-yl)-1H-indazol-6-yl)pyridin-2-yl)ethanone oxime] | 1000 to 10000
CCc1cccc(-n2ncc3ccc(-c4cccc(C(C)=O)n4)cc32)n1 [Example 228, 1-(6-(1-(6-ethylpyridin-2-yl)-1H-indazol-6-yl)pyridin-2-yl)ethanone] | 100 to 1000
CC(=O)c1cccc(-c2ccc3cnn(-c4ccccn4)c3c2)n1 [Example 229, 1-(6-(1-(pyridin-2-yl)-1H-indazol-6-yl)pyridin-2-yl)ethanone] | 1000 to 10000
C/C(=N\O)c1cccc(-c2ccc3cnn(-c4ccccn4)c3c2)n1 [Example 230, (E)-1-(6-(1-(pyridin-2-yl)-1H-indazol-6-yl)pyridin-2-yl)ethanone oxime] | > 10000
Cc1cccc(-n2ncc3ccc(-c4cc(N)cc(CN)n4)cc32)n1 [Example 231, 2-(aminomethyl)-6-(1-(6-methylpyridin-2-yl)-1H-indazol-6-yl)pyridin-4-amine] | < 100
